Source: patent publication US10544130B2, “Metallo-beta-lactamase inhibitors” (priority 2015, dated 2020)
Read-outs that look alike come from different tables or passages of the source.

Columns and labels:
[1] = system: Escherichia coli expressing NDM-1 (CLB30005, CLB30016); type: cell-based; settings: with imipenem 1 μg/ml, 95% inhibition of bacterial growth
Protocol: Antibiotic Potentiation Activity: Determination of Synergistic Concentration
The bacterial strains tested included the clinical strains Escherichia coli expressing NDM-1 (CLB30005, CLB30016), Serratia marcescens expressing IMP-1 (CL5741), and Klebsiella pneumoniae expressing VIM-1 (IHMA599644). Inhibitor activity was measured in the presence and absence of imipenem in a 384-well microplate.
The clinical strains CLB30016, CL5741 and IHMA599644 were grown on trypticase soy agar containing 5% sheep's blood. The bacteria on agar plates were incubated at 35° C. with humidity overnight. The following day, individual colonies from each clinical strain were picked and resuspended in 5 ml saline to attain an OD600 of 0.14, 0.11, 0.15 and 0.13, for CLB30016, CL5741 and IHMA599644, respectively. These were further diluted 1:100 into 1.1× CAMHB and used to inoculate the test wells as described below.
Imipenem in 10 mM 3-(N-morpholino)propanesulfonic acid (MOPS, pH 7) was stored in single use aliquots at −80° C. […] On the day of the assay, 4 μl of antibiotic was added to 45 ul of bacteria followed by 1 μl of test compound and mixed by pipetting and with an orbital shaker. The concentration of antibiotic used in the assay was 1 μg/ml. Microplates were covered and incubated at 35° C. for 22 hours to 24 hours. At the end of the incubation, absorbance was determined using a spectrophotometer.

[2] = system: Pseudomonas aeruginosa PAO1 MB9798 (efflux+, IMP-1); settings: ratio MITC95 PA 9798/MITC95 PA 9799; imipenem at 2 μg/mL
Outline: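 Isogenic PAO1 pair (efflux+ MB9798, efflux− MB9799, both IMP-1) tested by microbroth MIC with fixed imipenem and/or ceftazidime, usually at CLSI breakpoint, plus fixed class A/C inhibitor against AmpC. MBL inhibitor titrated; concentration restoring susceptibility recorded and fold difference between strains taken as efflux extent.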

| Compound | Escherichia coli (NDM-1) MITC95 [1] | Efflux ratio [2] | Escherichia coli (NDM-1) MITC95 ([1]; CLB30016) |
| --- | --- | --- | --- |
| NC(=O)c1nc2c(-c3ccc(S(=O)(=O)N[C@H]4CCNC4)c(S(N)(=O)=O)c3-c3nn[nH]n3)cccc2[nH]1 [Example 292, (S)-4-(4-(N-(pyrrolidin-3-yl)sulfamoyl)-3-sulfamoyl-2-(2H-tetrazol-5-yl)phenyl)-1H-benzo[d]imidazole-2-carboxamide] | 1.563 µM | 0.50 | – |
| NCCNS(=O)(=O)c1ccc(-c2ccc3[nH]c(CN)nc3c2)c(-c2nn[nH]n2)c1S(N)(=O)=O [Example 466, N1-(2-aminoethyl)-4-(2-(aminomethyl)-1H-benzo[d]imidazol-5-yl)-3-(2H-tetrazol-5-yl)benzene-1,2-disulfonamide] | 0.7813 µM | – | – |
| NCCNc1cc(-c2ccc(S(=O)(=O)NCCO)c(S(N)(=O)=O)c2-c2nn[nH]n2)ccn1 [Example 457, 4-(2-((2-aminoethyl)amino)pyridin-4-yl)-N1-(2-hydroxyethyl)-3-(2H-tetrazol-5-yl)benzene-1,2-disulfonamide] | 1.563 µM | – | – |
| NCc1nc2cc(-c3ccc(S(=O)(=O)N[C@@H]4CCNC4)c(S(N)(=O)=O)c3-c3nn[nH]n3)ccc2[nH]1 [Example 274, (R)-4-(2-(aminomethyl)-1H-benzo[d]imidazol-5-yl)-N1-(pyrrolidin-3-yl)-3-(2H-tetrazol-5-yl)benzene-1,2-disulfonamide] | 0.7813 µM | 1.00 | – |
| C[C@@H](N)c1nc2c(-c3ccc(S(=O)(=O)N[C@@H]4CCNC4)c(S(N)(=O)=O)c3-c3nn[nH]n3)cccc2[nH]1 [Example 273, 4-(2-((R)-1-aminoethyl)-1H-benzo[d]imidazol-4-yl)-N1-((R)-pyrrolidin-3-yl)-3-(2H-tetrazol-5-yl)benzene-1,2-disulfonamide] | 1.563 µM | 1.00 | – |
| CC[C@@H](CN)NS(=O)(=O)c1ccc(-c2cccc3[nH]c(N)nc23)c(-c2nn[nH]n2)c1S(N)(=O)=O [Example 264, (S)-4-(2-amino-1H-benzo[d]imidazol-4-yl)-N1-(1-aminobutan-2-yl)-3-(2H-tetrazol-5-yl)benzene-1,2-disulfonamide] | 0.7813 µM | 4.00 | – |
| NC[C@@H](CO)NS(=O)(=O)c1ccc(-c2cccc3[nH]c(N)nc23)c(-c2nnn[nH]2)c1S(N)(=O)=O [Example 426, (S)-4-(2-Amino-1H-benzo[d]imidazol-4-yl)-N^1-(1-amino-3-hydroxypropan-2-yl)-3-(1H-tetrazol-5-yl)benzene-1,2-disulfonamide] | 0.3906 µM | – | – |
| NCc1nc2c(-c3ccc(S(=O)(=O)NC[C@H](O)CN)c(S(N)(=O)=O)c3-c3nn[nH]n3)cccc2[nH]1 [Example 299, (R)—N1-(3-amino-2-hydroxypropyl)-4-(2-(aminomethyl)-1H-benzo[d]imidazol-4-yl)-3-(2H-tetrazol-5-yl)benzene-1,2-disulfonamide] | 0.7813 µM | 1.00 | – |
| NS(=O)(=O)c1c(S(=O)(=O)N[C@@H]2CCNC2)ccc(-c2cccn3ccnc23)c1-c1nn[nH]n1 [Example 291, (R)-4-(imidazo[1,2-a]pyridin-8-yl)-N1-(pyrrolidin-3-yl)-3-(2H-tetrazol-5-yl)benzene-1,2-disulfonamide] | 0.7813 µM | 1.00 | – |
| NCCNS(=O)(=O)c1ccc(-c2cccc3[nH]c(C4CNC4)nc23)c(-c2nn[nH]n2)c1S(N)(=O)=O [Example 443, N1-(2-aminoethyl)-4-(2-(azetidin-3-yl)-1H-benzo[d]imidazol-4-yl)-3-(2H-tetrazol-5-yl)benzene-1,2-disulfonamide] | 0.7813 µM | – | – |
| N[C@H](CO)c1nc2c(-c3ccc(S(=O)(=O)N[C@H]4CNC[C@H]4N)c(S(N)(=O)=O)c3-c3nn[nH]n3)cccc2[nH]1 [Example 323, 4-(2-((S)-1-amino-2-hydroxyethyl)-1H-benzo[d]imidazol-4-yl)-N1-((3S,4R)-4-aminopyrrolidin-3-yl)-3-(2H-tetrazol-5-yl)benzene-1,2-disulfonamide] | 1.563 µM | 1.00 | – |
| C[C@H](CN)NS(=O)(=O)c1ccc(-c2cccn3ccnc23)c(-c2nn[nH]n2)c1S(N)(=O)=O [Example 384, (R)—N1-(1-aminopropan-2-yl)-4-(imidazo[1,2-a]pyridin-8-yl)-3-(2H-tetrazol-5-yl)benzene-1,2-disulfonamide] | 1.563 µM | 0.50 | – |
| NCCNS(=O)(=O)c1ccc(-c2cccc3[nH]c([C@@H]4C[C@@H](O)CN4)nc23)c(-c2nn[nH]n2)c1S(N)(=O)=O [Example 444, N1-(2-aminoethyl)-4-(2-((2S,4R)-4-hydroxypyrrolidin-2-yl)-1H-benzo[d]imidazol-4-yl)-3-(2H-tetrazol-5-yl)benzene-1,2-disulfonamide] | 1.563 µM | – | – |
| NCCNS(=O)(=O)c1ccc(-c2cccc3c2CCCN3)c(-c2nn[nH]n2)c1S(N)(=O)=O [Example 455, N1-(2-Aminoethyl)-4-(1,2,3,4-tetrahydroquinolin-5-yl)-3-(2H-tetrazol-5-yl)benzene-1,2-disulfonamide] | 1.563 µM | – | – |
| NCc1nc2cc(-c3ccc(S(=O)(=O)N[C@@H](CN)CO)c(S(N)(=O)=O)c3-c3nn[nH]n3)ccc2s1 [Example 475, (S)-N1-(1-amino-3-hydroxypropan-2-yl)-4-(2-(aminomethyl)benzo[d]thiazol-5-yl)-3-(2H-tetrazol-5-yl)benzene-1,2-disulfonamide] | 0.7813 µM | – | – |
| NCCNc1cc(-c2ccc(S(=O)(=O)N[C@@H]3CCNC3)c(S(N)(=O)=O)c2-c2nn[nH]n2)ccn1 [Example 458, (R)-4-(2-((2-aminoethyl)amino)pyridin-4-yl)-N1-(pyrrolidin-3-yl)-3-(2H-tetrazol-5-yl)benzene-1,2-disulfonamide] | 0.7813 µM | – | – |
| NCc1nc2cc(-c3ccc(S(=O)(=O)NC[C@@H](O)CN)c(S(N)(=O)=O)c3-c3nn[nH]n3)ccc2s1 [Example 473, (S)-N1-(3-amino-2-hydroxypropyl)-4-(2-(aminomethyl)benzo[d]thiazol-5-yl)-3-(2H-tetrazol-5-yl)benzene-1,2-disulfonamide] | 0.7813 µM | – | – |
| C[C@H](CN)NS(=O)(=O)c1ccc(-c2cc(F)cc3[nH]c(N)nc23)c(-c2nn[nH]n2)c1S(N)(=O)=O [Example 396, (R)-4-(2-amino-6-fluoro-1H-benzo[d]imidazol-4-yl)-N^1-(1-aminopropan-2-yl)-3-(2H-tetrazol-5-yl)benzene-1,2-disulfonamide] | 0.7813 µM | – | – |
| NCc1nc2cc(-c3ccc(S(=O)(=O)N[C@@H](CN)CO)c(S(N)(=O)=O)c3-c3nn[nH]n3)ccc2[nH]1 [Example 474, (S)-N1-(1-amino-3-hydroxypropan-2-yl)-4-(2-(aminomethyl)-1H-benzo[d]imidazol-5-yl)-3-(2H-tetrazol-5-yl)benzene-1,2-disulfonamide] | 0.7813 µM | – | – |
| C[C@@H](CCN)NS(=O)(=O)c1ccc(-c2ccc(N)nc2)c(-c2nn[nH]n2)c1S(N)(=O)=O [Example 499, (5)-N1-(4-aminobutan-2-yl)-4-(6-aminopyridin-3-yl)-3-(1H-tetrazol-5-yl)benzene-1,2-disulfonamide] | – | – | 0.7813 µM |
| NCc1nc2cc(-c3ccc(S(=O)(=O)NC[C@@H](O)CN)c(S(N)(=O)=O)c3-c3nn[nH]n3)ccc2[nH]1 [Example 465, (S)-N1-(3-amino-2-hydroxypropyl)-4-(2-(aminomethyl)-1H-benzo[d]imidazol-5-yl)-3-(2H-tetrazol-5-yl)benzene-1,2-disulfonamide] | 0.7813 µM | – | – |
| NCC(CN)NS(=O)(=O)c1ccc(-c2cccc3sc(N)nc23)c(-c2nn[nH]n2)c1S(N)(=O)=O [Example 436, 4-(2-aminobenzo[d]thiazol-4-yl)-N1-(1,3-diaminopropan-2-yl)-3-(2H-tetrazol-5-yl)benzene-1,2-disulfonamide] | 0.7813 µM | – | – |
| NCC(CN)NS(=O)(=O)c1ccc(-c2ccnc(-c3cnc(N)[nH]3)c2)c(-c2nnn[nH]2)c1S(N)(=O)=O [Example 437, 4-(2-(2-Amino-1H-imidazol-5-yl)pyridin-4-yl)-N^1-(1,3-diaminopropan-2-yl)-3-(1H-tetrazol-5-yl)benzene-1,2-disulfonamide] | 0.7813 µM | – | – |
| NCc1nc2cc(-c3ccc(S(=O)(=O)NC[C@H](O)CN)c(S(N)(=O)=O)c3-c3nn[nH]n3)ccc2[nH]1 [Example 464, (R)—N1-(3-amino-2-hydroxypropyl)-4-(2-(aminomethyl)-1H-benzo[d]imidazole-5-yl)-3-(2H-tetrazol-5-yl)benzene-1,2-disulfonamide] | 0.7813 µM | – | – |
